Measurements as given in patent US12077503B2, “Substituted cyclic amides and their use as herbicides” (FMC CORPORATION, priority 2015, dated 2024).

Legend:
Type in all cases: in vivo
[1] = tested on: barnyardgrass (Echinochloa crus-galli); test: Test C flooded paddy test; settings: Flood; for Plant response rating (scale of 0 to 100), Barnyardgrass: 0 is no effect, 100 is complete control
Description: (§1) Plant species in the flooded paddy test consisted of rice (Oryza sativa), sedge, umbrella (small-flower umbrella sedge, Cyperus difformis), ducksalad (Heteranthera limosa), and barnyardgrass (Echinochloa crus-galli) grown to the 2-leaf stage for testing. At time of treatment, test pots were flooded to 3 cm above the soil surface, treated by application of test compounds directly to the paddy water, and then maintained at that water depth for the duration of the test. Treated plants and controls were maintained in a greenhouse for 13 to 15 d, after which time all species were compared to controls and visually evaluated. Plant response ratings, summarized in Table C, are based on a scale of 0 to 100 where 0 is no effect and 100 is complete control. A dash (-) response means no test result.

[2] = tested on: ducksalad (Heteranthera limosa); test: Test C flooded paddy test; settings: Flood; for Plant response rating (scale of 0 to 100), Ducksalad: 0 is no effect, 100 is complete control
Description: as §1

rice (Oryza sativa) = test: Test C flooded paddy test; settings: Flood; for Plant response rating (scale of 0 to 100), Rice: 0 is no effect, 100 is complete control
Description: as §1

[3] = tested on: sedge, umbrella (small-flower umbrella sedge, Cyperus difformis); test: Test C flooded paddy test; settings: Flood; for Plant response rating (scale of 0 to 100), Sedge, Umbrella: 0 is no effect, 100 is complete control
Description: as §1

[4] = tested on: barnyardgrass (Echinochloa crus-galli); test: Test B flooded paddy test; settings: Flood, 250 g ai/ha; 0 to 100 scale where 0 is no effect and 100 is complete control; 13 to 15 d
How it was run: (§2)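 Evaluation by eye, against controls, occurred 13–15 d post-treatment in a greenhouse, using a 0 (no effect) to 100 (complete control) scale. Application was into the paddy water, 3 cm deep over the soil, on 2-leaf plants.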

[5] = tested on: ducksalad (Heteranthera limosa); test: Test B flooded paddy test; settings: Flood, 250 g ai/ha; 0 to 100 scale where 0 is no effect and 100 is complete control; 13 to 15 d
How it was run: as §2

rice (Oryra sativa) = test: Test B flooded paddy test; settings: Flood, 250 g ai/ha; 0 to 100 scale where 0 is no effect and 100 is complete control; 13 to 15 d
How it was run: as §2

[6] = tested on: sedge, umbrella (small-flower umbrella sedge, Cyperus difformis); test: Test B flooded paddy test; settings: Flood, 250 g ai/ha; 0 to 100 scale where 0 is no effect and 100 is complete control; 13 to 15 d
How it was run: as §2

[7] = tested on: barnyardgrass (Echinochloa crus-galli); test: Test A postemergence
How it was run: (§3)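 Preemergence directed soil spray on seeded pots, or postemergence application to plants 2–10 cm, one- to two-leaf. Solvent mixture non-phytotoxic, with surfactant. Scored ~10 d later, visually, 0–100 vs untreated.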

[8] = tested on: wheat (Triticum aestivum); test: Test A postemergence
How it was run: as §3

[9] = tested on: giant foxtail (Setaria faberii); test: Test A postemergence
How it was run: as §3

[10] = tested on: pigweed (Amaranthus retroflexus); test: Test A postemergence
How it was run: as §3

[11] = tested on: ragweed (common ragweed, Ambrosia elatior); test: Test A postemergence
How it was run: as §3

corn (Zea mays) = test: Test A postemergence
How it was run: as §3

[12] = tested on: Galium (catchweed bedstraw, Galium aparine); test: Test A postemergence
How it was run: as §3

[13] = tested on: ryegrass, Italian (Italian ryegrass, Lolium multiflorum); test: Test A postemergence
How it was run: as §3

[14] = tested on: blackgrass (Alopecurus myosuroides); test: Test A postemergence
How it was run: as §3

Kochia (Kochia scoparia) [15] = test: Test A postemergence
How it was run: as §3

[16] = tested on: barnyardgrass (Echinochloa crus-galli); test: Test A preemergence
How it was run: as §3

[17] = tested on: giant foxtail (Setaria faberii); test: Test A preemergence
How it was run: as §3

[18] = tested on: pigweed (Amaranthus retroflexus); test: Test A preemergence
[19] = tested on: ragweed (common ragweed, Ambrosia elatior); test: Test A preemergence
How it was run: as §3

[20] = tested on: ryegrass, Italian (Italian ryegrass, Lolium multiflorum); test: Test A preemergence
How it was run: as §3

Kochia (Kochia scoparia) [21] = test: Test A preemergence
How it was run: as §3

[22] = 31 g ai/ha, scale 0 to 100 (0 no effect, 100 complete control), 13 to 15 d
[23] = 125 g ai/ha, postemergence, visual rating after approx. 10 d, 0 to 100 scale (0 no effect, 100 complete control)
[24] = 500 g ai/ha, postemergence, visual injury, 0 to 100 scale (0 no effect, 100 complete control), approx. 10 d
[25] = 125 g ai/ha, Preemergence, visual injury after approximately 10 d, 0 to 100 scale where 0 is no effect and 100 is complete control
[26] = 500 g ai/ha, preemergence, 0 to 100 scale, 0 = no effect, 100 = complete control
[27] = 125 g ai/ha, postemergence, visual injury rating on 0 to 100 scale (0 no effect, 100 complete control), approx. 10 d
[28] = Postemergence, 500 g ai/ha, 0 to 100 scale where 0 is no effect and 100 is complete control
[29] = Preemergence, 500 g ai/ha, visual injury approx. 10 d

## CN1CC(c2cc(F)cc(F)c2)C(C(=O)Nc2ccc(F)cc2F)C1=O (centres unmarked) [Compound 645]
[1]; [22]
  Plant response rating, Barnyardgrass: 30
[1]; 62 g ai/ha
  Plant response rating (scale of 0 to 100), Barnyardgrass: 40
[1]; 125 g ai/ha
  Plant response rating (scale of 0 to 100), Barnyardgrass: 65
[1]; 250 g ai/ha
  Plant response rating (scale of 0 to 100), Barnyardgrass: 75
[2]; [22]
  Plant response rating, Ducksalad: 30
[2]; 62 g ai/ha
  Plant response rating (scale of 0 to 100), Ducksalad: 60
[2]; 125 g ai/ha
  Plant response rating (scale of 0 to 100), Ducksalad: 80
[2]; 250 g ai/ha
  Plant response rating (scale of 0 to 100), Ducksalad: 95
Rice (Oryza sativa); [22]
  Plant response rating, Rice: 0
Rice (Oryza sativa); 62 g ai/ha
  Plant response rating (scale of 0 to 100), Rice: 0
Rice (Oryza sativa); 125 g ai/ha
  Plant response rating (scale of 0 to 100), Rice: 0
Rice (Oryza sativa); 250 g ai/ha
  Plant response rating (scale of 0 to 100), Rice: 0
[3]; [22]
  Plant response rating, Sedge, Umbrella: 0
[3]; 62 g ai/ha
  Plant response rating (scale of 0 to 100), Sedge, Umbrella: 0
[3]; 125 g ai/ha
  Plant response rating (scale of 0 to 100), Sedge, Umbrella: 0
[3]; 250 g ai/ha
  Plant response rating (scale of 0 to 100), Sedge, Umbrella: 0
[4]
  Plant response rating, Barnyardgrass: 80
[5]
  Plant response rating, Ducksalad: 100
Rice (Oryra sativa)
  Plant response rating, Rice: 0
[6]
  Plant response rating, Sedge, Umbrella: 0
[7]; [23]
  Plant response rating, Barnyardgrass: 90
[7]; [24]
  Plant response rating, Barnyardgrass: 90
[8]; [23]
  Plant response rating, Wheat: 30
[8]; [24]
  Plant response rating, Wheat: 50
[9]; [23]
  Plant response rating, Foxtail, Giant: 90
[9]; [24]
  Plant response rating, Foxtail, Giant: 90
[10]; [23]
  Plant response rating, Pigweed: 0
[10]; [24]
  Plant response rating, Pigweed: 0
[11]; [23]
  Plant response rating, Ragweed: 10
[11]; [24]
  Plant response rating, Ragweed: 20
Corn (Zea mays); [23]
  Plant response rating, Corn: 20
Corn (Zea mays); [24]
  Plant response rating, Corn: 60
[12]; [23]
  Plant response rating, Galium: 50
[12]; [24]
  Plant response rating, Galium: 50
[13]; [23]
  Plant response rating, Ryegrass, Italian: 20
[13]; [24]
  Plant response rating, Ryegrass, Italian: 50
[14]; [23]
  Plant response rating, Blackgrass: 60
[14]; [24]
  Plant response rating, Blackgrass: 70
Kochia (Kochia scoparia) [15]; [23]
  Plant response rating, Kochia: 0
Kochia (Kochia scoparia) [15]; [24]
  Plant response rating, Kochia: 50
[16]; [25]
  Plant response rating, Barnyardgrass: 90
[16]; [26]
  Plant response rating, Barnyardgrass: 90
[17]; [25]
  Plant response rating, Foxtail, Giant: 90
[17]; [26]
  Plant response rating, Foxtail, Giant: 90
[18]; [25]
  Plant response rating, Pigweed: 0
[18]; [26]
  Plant response rating, Pigweed: 50
[19]; [25]
  Plant response rating, Ragweed: 0
[19]; [26]
  Plant response rating, Ragweed: 20
[20]; [25]
  Plant response rating, Ryegrass, Italian: 20
[20]; [26]
  Plant response rating, Ryegrass, Italian: 60
Kochia (Kochia scoparia) [21]; [25]
  Plant response rating, Kochia: 0
Kochia (Kochia scoparia) [21]; [26]
  Plant response rating, Kochia: 60

## O=C1NCC(c2cccc(F)c2F)C1C(=O)Nc1cccc(F)c1F (centres unmarked) [Compound 487]
[1]; 31 g ai/ha
  Plant response rating (scale of 0 to 100), Barnyardgrass: 0
[1]; 62 g ai/ha
  Plant response rating (scale of 0 to 100), Barnyardgrass: 15
[1]; 125 g ai/ha
  Plant response rating (scale of 0 to 100), Barnyardgrass: 20
[1]; 250 g ai/ha
  Plant response rating (scale of 0 to 100), Barnyardgrass: 65
[2]; 31 g ai/ha
  Plant response rating (scale of 0 to 100), Ducksalad: 30
[2]; 62 g ai/ha
  Plant response rating (scale of 0 to 100), Ducksalad: 45
[2]; 125 g ai/ha
  Plant response rating (scale of 0 to 100), Ducksalad: 85
[2]; 250 g ai/ha
  Plant response rating (scale of 0 to 100), Ducksalad: 100
Rice (Oryza sativa); 31 g ai/ha
  Plant response rating (scale of 0 to 100), Rice: 0
Rice (Oryza sativa); 62 g ai/ha
  Plant response rating (scale of 0 to 100), Rice: 0
Rice (Oryza sativa); 125 g ai/ha
  Plant response rating (scale of 0 to 100), Rice: 0
Rice (Oryza sativa); 250 g ai/ha
  Plant response rating (scale of 0 to 100), Rice: 0
[3]; 31 g ai/ha
  Plant response rating (scale of 0 to 100), Sedge, Umbrella: 0
[3]; 62 g ai/ha
  Plant response rating (scale of 0 to 100), Sedge, Umbrella: 0
[3]; 125 g ai/ha
  Plant response rating (scale of 0 to 100), Sedge, Umbrella: 0
[3]; 250 g ai/ha
  Plant response rating (scale of 0 to 100), Sedge, Umbrella: 0
[4]
  Plant response rating, Barnyardgrass: 75
[5]
  Plant response rating, Ducksalad: 95
Rice (Oryra sativa)
  Plant response rating, Rice: 0
[6]
  Plant response rating, Sedge, Umbrella: 0
[7]; [27]
  Barnyardgrass plant response rating: 80
[7]; [28]
  Plant response rating, Barnyardgrass: 90
[8]; [27]
  Wheat plant response rating: 0
[8]; [28]
  Plant response rating, Wheat: 20
[9]; [27]
  Foxtail, Giant plant response rating: 80
[9]; [28]
  Plant response rating, Foxtail, Giant: 90
[10]; [27]
  Pigweed plant response rating: 0
[10]; [28]
  Plant response rating, Pigweed: 20
[11]; [27]
  Ragweed plant response rating: 0
[11]; [28]
  Plant response rating, Ragweed: 0
Corn (Zea mays); [27]
  Corn plant response rating: 0
Corn (Zea mays); [28]
  Plant response rating, Corn: 20
[12]; [27]
  Galium plant response rating: 0
[12]; [28]
  Plant response rating, Galium: 0
[13]; [27]
  Ryegrass, Italian plant response rating: 0
[13]; [28]
  Plant response rating, Ryegrass, Italian: 20
[14]; [27]
  Blackgrass plant response rating: 0
[14]; [28]
  Plant response rating, Blackgrass: 30
Kochia (Kochia scoparia) [15]; [27]
  Kochia plant response rating: 0
Kochia (Kochia scoparia) [15]; [28]
  Plant response rating, Kochia: 30
[16]; [25]
  Plant response rating, Barnyardgrass: 90
[16]; [29]
  Barnyardgrass plant response rating (0 to 100 scale, 0 is no effect, 100 is complete control): 90
[17]; [25]
  Plant response rating, Foxtail, Giant: 90
[17]; [29]
  Foxtail, Giant plant response rating (0 to 100 scale, 0 is no effect, 100 is complete control): 90
[18]; [25]
  Plant response rating, Pigweed: 0
[18]; [29]
  Pigweed plant response rating (0 to 100 scale, 0 is no effect, 100 is complete control): 30
[19]; [25]
  Plant response rating, Ragweed: 30
[19]; [29]
  Ragweed plant response rating (0 to 100 scale, 0 is no effect, 100 is complete control): 30
[20]; [25]
  Plant response rating, Ryegrass, Italian: 20
[20]; [29]
  Ryegrass, Italian plant response rating (0 to 100 scale, 0 is no effect, 100 is complete control): 40
Kochia (Kochia scoparia) [21]; [25]
  Plant response rating, Kochia: 30
Kochia (Kochia scoparia) [21]; [29]
  Kochia plant response rating (0 to 100 scale, 0 is no effect, 100 is complete control): 60
